Reference: US7678538B2, “Disinfection of biological fluids using asymmetric cyanine dyes” (American National Red Cross, priority 2005, dated 2010)
“And” between values parts separate entries of the source, which are not always exact repeats. Equal entries are not always repeated.

Key:
VSV = assay type: cell-based; details: 80 μM TO, 7.4 J/cm^2 cool white light, 20% hematocrit RBCs, 60 min incubation
PRV = assay type: cell-based, Pseudorabies virus; details: 80 μM TO, 7.4 J/cm^2 cool white light, 20% hematocrit RBCs, 60 min incubation
BVDV = assay type: cell-based, Bovine viral diarrhea virus
extracellular HIV = assay type: cell-based; details: 80 μM TO, 7.4 J/cm^2 cool white light, 20% hematocrit RBCs, 60 min incubation
intracellular HIV = experiment: HIV photoinactivation in RBC suspension, CCRF-CEM coculture and p24 ELISA; assay type: cell-based, HIV-1; details: 80 μM TO, 7.4 J/cm^2 cool white light, 20% hematocrit RBCs, 60 min incubation
bacteriophage φ6 = experiment: Bacteriophage photoinactivation in RBC suspension, plaque assay; assay type: cell-based; details: 80 μM TO, 7.4 J/cm^2 cool white light, 20% hematocrit RBCs, 60 min incubation
Experimental: Leukodepleted 20% hematocrit RBCs suspended in Erythrosol (RAS-2) were oxygenated, inoculated with test organisms, incubated with TO, and illuminated with 7.4 J/cm^2 of cool white light. Control and treated samples were analyzed by appropriate assay. Identically prepared, but uncontaminated samples were phototreated, concentrated to 45% hematocrit, and assayed for potassium leakage, hemolysis and ATP during storage.
(§1) Viruses or bacteria were added into approximately 50-60% hematocrit RBCs with subsequent addition of additive solution and TO to obtain 20% final hematocrit containing 80 μM of the dye. The final volume of the pathogen spike was equal to 10% for mammalian viruses and equal to 1% for bacteriophage and bacteria. […] A fluence rate of 8.2 mW/cm^2 was measured by an optical power meter (model 371, United Detector Technology, Hawthorn, Calif.) equipped with a silicone diode detector and radiometric filter (400-1000 nm, model 115-9, United Detector Technology). […]
All virus assays were individually tested for cytotoxicity and interference. […] Log10 reduction values were calculated by subtracting the log10 titer/mL of RBCs with viable virus after illumination, or the log10 limit of detection/mL of RBCs without viable virus after illumination, from the measured log10 titer/mL of unilluminated RBCs.

[1] = system: Staphylococcus epidermidis; experiment: Bacteria photoinactivation in RBC suspension, colony count; assay type: cell-based; details: 80 μM TO, 7.4 J/cm^2 cool white light, 20% hematocrit RBCs, 60 min incubation
Staphylococcus aureus = experiment: as above; assay type: cell-based; details: 80 μM TO, 7.4 J/cm^2 cool white light, 20% hematocrit RBCs, 60 min incubation
Deinococcus radiodurans = experiment: as above; assay type: cell-based; details: 80 μM TO, 7.4 J/cm^2 cool white light, 20% hematocrit RBCs, 60 min incubation
Yersinia enterocolitica = experiment: as above; assay type: cell-based; details: 80 μM TO, 7.4 J/cm^2 cool white light, 20% hematocrit RBCs, 60 min incubation
Pseudomonas fluorescens = experiment: as above; assay type: cell-based; details: 80 μM TO, 7.4 J/cm^2 cool white light, 20% hematocrit RBCs, 60 min incubation
Serratia liquefaciens = experiment: as above; assay type: cell-based; details: 80 μM TO, 7.4 J/cm^2 cool white light, 20% hematocrit RBCs, 60 min incubation
Serratia marcescens = experiment: as above; assay type: cell-based; details: 80 μM TO, 7.4 J/cm^2 cool white light, 20% hematocrit RBCs, 60 min incubation
Escherichia coli = experiment: as above; assay type: cell-based; details: 80 μM TO, 7.4 J/cm^2 cool white light, 20% hematocrit RBCs, 60 min incubation
enveloped viruses = assay type: cell-based
bacteria = experiment: Bacteria photoinactivation, tested species overall; assay type: cell-based; details: 80 μM TO, 7.4 J/cm^2 cool white light
Experimental: as §1, with “bacteria. RBC suspensions containing dye were incubated for 60 minutes and 2 ml aliquots were transferred to polystyrene culture dishes (50 mm bottom diameter) to produce a 1 mm blood film. For some bacterial experiments, RBC suspensions were incubated for different times prior to illumination.” for “bacteria.”
We prepared bacterial stocks by inoculating a single colony into 5 mL of Luria broth (LB) and incubating cultures overnight under aerobic conditions at 30 or 37° C., depending on the strain. […] Colonies were counted after 24-72 hours of incubation at 30 or 37° C., with time and incubation temperature depending on the strain. Colonies were counted from all plates that contained between 1 and 750 colonies per plate. […]

model viruses = details: dimethylmethylene blue phototreatment with quinacrine as competitive membrane binding inhibitor; cited from earlier work

CN1/C(=C/c2cc[n+](C)c3ccccc23)Sc2ccccc21.Cc1ccc(S(=O)(=O)[O-])cc1 [TO, 1-methyl-4-[(3-methyl-2(3H)-benzothiazolylidene)methyl]quinoliniump-tosylate]
Inactivation Log10, VSV (VSV): 7.1 log10 and 7.1±0.2 log10 and 7.1 ± 0.2 (n = 4) log10
Inactivation Log10, PRV (PRV): 5.4 log10 and 5.4±0.7 log10 and 5.4 ± 0.7 (n = 4) log10
Inactivation Log10, BVDV (BVDV): 6.2 log10 and 6.2±0.1 log10 and 6.2 ± 0.1 (n = 3) log10
Inactivation Log10, extracellular HIV (extracellular HIV): >6.5 (n = 3) log10
Inactivation Log10, intracellular HIV (intracellular HIV): >6.3 (n = 3) log10
Inactivation Log10, bacteriophage φ6 (bacteriophage φ6): 6.7 log10 and 6.7±0.7 log10 and 6.7 ± 0.7 (n = 3) log10
Inactivation Log10, Staphylococcus epidermidis [1]: >7.0 (n = 4) log10
Inactivation Log10, Staphylococcus aureus (Staphylococcus aureus): 2.4 log10 and 2.4 ± 0.7 (n = 4) log10
Inactivation Log10, Deinococcus radiodurans (Deinococcus radiodurans): >6.8 (n = 3) log10
Inactivation Log10, Yersinia enterocolitica (Yersinia enterocolitica): 6.4 log10 and 6.4 ± 2.0 (n = 4) log10
Inactivation Log10, Pseudomonas fluorescens (Pseudomonas fluorescens): 2.3 log10 and 2.3 ± 1.2 (n = 4) log10
Inactivation Log10, Serratia liquefaciens (Serratia liquefaciens): 2.8 log10 and 2.8 ± 0.6 (n = 4) log10
Inactivation Log10, Serratia marcescens (Serratia marcescens): 3.5 log10 and 3.5 ± 2.5 (n = 3) log10
Inactivation Log10, Escherichia coli (Escherichia coli): 5.3 log10 and 5.3 ± 2.0 (n = 4) log10
inactivation of tested enveloped viruses (enveloped viruses): 5.1-7.4 log10
inactivation of bacteria, another four (more resistant) species (bacteria): 2-3 log10
inactivation of bacteria, four (sensitive) species (bacteria): 5-7 log10
day 42 hemolysis in ADSOL additive solution (RBCs): 1.6±0.6%
hemolysis levels during storage, TO versus TP phototreated RBCs (RBCs): similar
hemolysis on day 42, TO maintained in the dark (RBCs): 0.31%

Cc1cc(=[N+](C)C)cc2sc3cc(N(C)C)cc(C)c3nc1-2.[Cl-] [dimethylmethylene blue]
reduction of model viruses (model viruses): > 6 log10
